Measured values published in patent US7365099B2, “Animal body fat control” (Wisconsin Alumni Research Foundation, priority 2001, dated 2008).

Test system: lipoprotein lipase associated with 3T3-L1 adipocytes
Test: Heparin-releasable lipoprotein lipase (LPL) activity in 3T3-L1 adipocyte cultures
Assay type: cell-based
Settings: for LPL activity (in words): CLA 100 μM, aspirin 100 μM
Procedure: Using the same model, the effects on LPL of aspirin and NDGA, as compared to CLA, were tested. 3T3-L1 preadipocytes were cultured as described. […] Briefly, 3T3-L1 preadipocytes were grown to confluence at 37° C. in Dulbecco's Modified Eagle's Medium (DMEM) with 10% fetal bovine serum (FBS). At two days post-confluence (designated “day 0”) cell differentiation was induced with a mixture of methylisobutylxanthine (0.5 mM), dexamethasone (0.25 μM), and insulin (1 μg/ml) in DMEM containing 10% FBS. On “day 2” this medium was replaced with DMEM medium containing 10% FBS and insulin only. On “day 4” and thereafter the medium was DMEM plus 10% FBS only; this medium was subsequently replaced with fresh medium at 2 day intervals.
First, aspirin was tested along with PGE2, which is the final product of cyclooxygenase. Cells were treated with testing compounds for 4 hours before harvesting at day 6 or 7 post differentiation. The concentration of CLA, aspirin, and PGE2 were 1×10^−4 M, 1×10^−4 M, and 1×10^−6 M respectively. […] All dishes (including control) contained the same concentration of albumin (1×10^−4 M) and ethanol (final concentration of 0.1%).
Heparin-releasable lipoprotein lipase (LPL) activity (EC 3.1.1.34, 10 U heparin/ml media for 1 hr at 37° C.) was measured as described. Nilsson-Ehle, P. and M. C. […] Protein was determined using Bio-Rad DC Protein assay kit.
In a next set of cell culture experiments, shown in FIG. 4, cells were treated with testing compounds for 20–24 hours at day 7 post differentiation. […] CLA was complexed with albumin, and aspirin and NDGA were dissolved in ethanol. All dishes including control contained the same concentration of albumin (1×10^−4 M) and ethanol (final concentration of 0.05%). Numbers are mean±S.E. (n=7–8, collected from 2 independent experiments).
Cells were treated with other known lipoxygenase inhibitors. Cells were treated with testing compounds for 20–24 hours at day 6 or 7 post differentiation. Based on the ED50 of these inhibitors, various doses were first tested. In FIG. 5A, the concentration of SHA, CLA, ETYA, indomethacin, NDGA and AA861 were 1×10^−3 M, 1×10^−4 M, 1×10^−4 M, 1×10^−4 M, 1×10^−5 M and 1×10^−6 M, respectively. In FIG. 5B, the cells were treated with the test compounds at 1×10^−4 M. CLA was complexed with albumin and others were dissolved in ethanol. All dishes including control contained the same concentration of albumin (1×10^−4 M) and ethanol (final concentration of 0.1%). Numbers are mean±S.E. (in FIG. 5A, n=7–8, collected from 2 independent experiments, in FIG. 5B, n=11–12, collected from 3 independent experiments). […] Indomethacin blocks both cyclooxygenase and lipoxygenase, the two primary enzymes in the arachidonic acid metabolic cascade.

Conjugated linoleic acid [CLA]
LPL activity (in words) (FIG. 3, treated 4 hours, day 6 or 7 post differentiation, PGE2 1 μM): significantly decreased LPL activity | LPL activity (in words) (FIG. 4, treated 20–24 hours at day 7 post differentiation, NDGA 50 μM): significantly reduced LPL activity | potency in reducing LPL (rank order, in words) (FIG. 5B, 20–24 hours, all test compounds at 100 μM): AA861>NDGA>ETYA>Indomethacin>CLA
